Data taken from PMC3814616, “BRAF inhibitors suppress apoptosis through off-target inhibition of JNK signaling” (eLife, 2013).

What was measured:
Experiment in all cases: Quantitative competitive binding assay (KINOMEscan)
MLK1 (MAP3K9) = molecular target: T1, MLK1 (MAP3K9) (Homo sapiens, UniProt P80192); settings: for IC50: estimated Kd, averaged pointwise estimates, transformed Hill equation, read-out: Calculated estimate of IC50; for remaining binding at 0.05 µM: read-out: Percent control (50 nM); for remaining binding at 0.2 µM: read-out: Percent control (200 nM); for remaining binding at 1 µM: read-out: Percent control (1000 nM); for remaining binding at 10 µM: read-out: Percent control (10 μM)
T1 construct: purchased KINOMEscan (DiscoveRx), San Diego, CA

TAOK1 = molecular target: T2, TAOK1 (Homo sapiens, UniProt Q7L7X3); settings: for remaining binding at 0.2 µM: read-out: Percent control (200 nM); for remaining binding at 1 µM: read-out: Percent control (1000 nM); for remaining binding at 10 µM: read-out: Percent control (10 μM)
T2 construct: purchased KINOMEscan (DiscoveRx), San Diego, CA
T2 sequence (Q7L7X3 1-1001): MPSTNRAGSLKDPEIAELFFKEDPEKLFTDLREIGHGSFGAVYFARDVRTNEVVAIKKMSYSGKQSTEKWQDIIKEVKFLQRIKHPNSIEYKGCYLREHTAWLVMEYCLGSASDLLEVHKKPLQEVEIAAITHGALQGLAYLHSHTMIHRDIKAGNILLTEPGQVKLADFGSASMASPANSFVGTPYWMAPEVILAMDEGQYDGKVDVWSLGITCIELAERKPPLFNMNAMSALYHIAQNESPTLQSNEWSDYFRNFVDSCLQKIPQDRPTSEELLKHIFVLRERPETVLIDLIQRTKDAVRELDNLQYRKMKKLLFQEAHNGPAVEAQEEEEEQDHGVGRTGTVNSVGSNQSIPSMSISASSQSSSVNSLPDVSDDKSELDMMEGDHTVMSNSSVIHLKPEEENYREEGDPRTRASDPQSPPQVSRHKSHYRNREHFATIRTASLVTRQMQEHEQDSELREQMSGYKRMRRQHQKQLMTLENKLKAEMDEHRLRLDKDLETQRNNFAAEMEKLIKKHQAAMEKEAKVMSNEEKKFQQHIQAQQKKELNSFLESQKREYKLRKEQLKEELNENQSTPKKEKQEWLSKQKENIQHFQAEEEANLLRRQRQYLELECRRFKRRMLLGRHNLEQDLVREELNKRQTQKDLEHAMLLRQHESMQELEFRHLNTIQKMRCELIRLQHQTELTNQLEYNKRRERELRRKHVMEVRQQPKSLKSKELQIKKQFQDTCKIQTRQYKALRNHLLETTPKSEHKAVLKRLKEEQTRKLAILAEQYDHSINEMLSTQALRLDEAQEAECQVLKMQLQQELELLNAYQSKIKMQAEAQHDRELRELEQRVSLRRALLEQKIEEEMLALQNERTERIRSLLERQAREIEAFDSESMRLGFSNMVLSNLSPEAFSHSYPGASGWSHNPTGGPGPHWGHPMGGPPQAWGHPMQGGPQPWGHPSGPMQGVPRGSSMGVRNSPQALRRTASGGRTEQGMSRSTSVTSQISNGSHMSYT

MAP4K4 = molecular target: T3, MAP4K4 (Homo sapiens, UniProt O95819); settings: for remaining binding at 0.05 µM: read-out: Percent control (50 nM); for remaining binding at 0.2 µM: read-out: Percent control (200 nM); for remaining binding at 10 µM: read-out: Percent control (10 μM)
T3 construct: purchased KINOMEscan (DiscoveRx), San Diego, CA

MAP3K4 = molecular target: T4, MAP3K4 (Homo sapiens, UniProt Q9Y6R4); settings: for remaining binding at 0.05 µM: read-out: Percent control (50 nM); for remaining binding at 0.2 µM: read-out: Percent control (200 nM); for remaining binding at 1 µM: read-out: Percent control (1000 nM); for remaining binding at 10 µM: read-out: Percent control (10 μM)
T4 construct: purchased KINOMEscan (DiscoveRx), San Diego, CA

FGR = molecular target: T5, FGR (Homo sapiens, UniProt P09769); settings: for IC50: estimated Kd, averaged pointwise estimates, transformed Hill equation, read-out: Calculated estimate of IC50; for remaining binding at 0.05 µM: read-out: Percent control (50 nM); for remaining binding at 0.2 µM: read-out: Percent control (200 nM); for remaining binding at 1 µM: read-out: Percent control (1000 nM); for remaining binding at 10 µM: read-out: Percent control (10 μM)
T5 construct: purchased KINOMEscan (DiscoveRx), San Diego, CA

MAP3K15 = molecular target: T6, MAP3K15 (Homo sapiens, UniProt Q6ZN16); settings: for remaining binding at 0.05 µM: read-out: Percent control (50 nM); for remaining binding at 0.2 µM: read-out: Percent control (200 nM); for remaining binding at 1 µM: read-out: Percent control (1000 nM); for remaining binding at 10 µM: read-out: Percent control (10 μM)
T6 construct: purchased KINOMEscan (DiscoveRx), San Diego, CA
T6 sequence (Q6ZN16 1-1313): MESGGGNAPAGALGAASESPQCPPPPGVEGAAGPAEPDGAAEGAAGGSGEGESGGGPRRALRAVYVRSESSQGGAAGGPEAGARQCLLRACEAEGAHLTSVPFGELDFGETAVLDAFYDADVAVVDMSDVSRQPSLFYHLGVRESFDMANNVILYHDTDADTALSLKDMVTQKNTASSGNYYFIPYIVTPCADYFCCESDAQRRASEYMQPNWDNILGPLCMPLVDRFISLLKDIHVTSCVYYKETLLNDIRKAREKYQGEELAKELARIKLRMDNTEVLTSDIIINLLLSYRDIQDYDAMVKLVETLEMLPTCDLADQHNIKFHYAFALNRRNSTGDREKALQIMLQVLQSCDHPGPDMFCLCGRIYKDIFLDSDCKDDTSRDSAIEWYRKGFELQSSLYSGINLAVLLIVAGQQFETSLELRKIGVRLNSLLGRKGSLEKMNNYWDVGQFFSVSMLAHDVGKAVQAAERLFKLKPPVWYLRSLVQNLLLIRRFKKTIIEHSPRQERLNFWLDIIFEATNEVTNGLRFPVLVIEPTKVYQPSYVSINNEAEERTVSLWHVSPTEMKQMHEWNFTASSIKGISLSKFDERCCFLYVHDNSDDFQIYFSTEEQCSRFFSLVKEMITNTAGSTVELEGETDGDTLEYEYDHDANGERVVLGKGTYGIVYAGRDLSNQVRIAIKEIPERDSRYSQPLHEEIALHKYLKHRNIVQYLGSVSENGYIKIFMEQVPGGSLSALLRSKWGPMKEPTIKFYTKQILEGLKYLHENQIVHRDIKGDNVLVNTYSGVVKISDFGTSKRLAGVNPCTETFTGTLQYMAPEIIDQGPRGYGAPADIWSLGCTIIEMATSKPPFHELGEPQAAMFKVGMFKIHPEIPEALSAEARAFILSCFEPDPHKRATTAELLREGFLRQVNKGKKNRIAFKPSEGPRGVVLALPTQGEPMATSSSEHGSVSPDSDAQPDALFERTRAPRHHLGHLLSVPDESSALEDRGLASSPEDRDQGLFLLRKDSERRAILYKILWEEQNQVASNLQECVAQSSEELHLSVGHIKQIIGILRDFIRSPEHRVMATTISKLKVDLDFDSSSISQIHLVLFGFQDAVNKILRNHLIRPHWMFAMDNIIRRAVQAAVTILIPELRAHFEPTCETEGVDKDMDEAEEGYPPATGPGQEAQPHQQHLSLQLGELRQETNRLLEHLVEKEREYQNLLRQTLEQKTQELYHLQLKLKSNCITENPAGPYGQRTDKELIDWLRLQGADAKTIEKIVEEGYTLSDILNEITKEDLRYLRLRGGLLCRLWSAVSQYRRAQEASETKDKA

TAK1 (MAP3K7) = molecular target: T7, TAK1 (MAP3K7) (Homo sapiens, UniProt O43318); settings: for remaining binding at 0.05 µM: read-out: Percent control (50 nM); for remaining binding at 0.2 µM: read-out: Percent control (200 nM); for remaining binding at 1 µM: read-out: Percent control (1000 nM); for remaining binding at 10 µM: read-out: Percent control (10 μM)
T7 construct: purchased KINOMEscan (DiscoveRx), San Diego, CA

[1] = estimated Kd, averaged pointwise estimates, transformed Hill equation, read-out: Calculated estimate of IC50

T3 sequence (O95819 whole entry): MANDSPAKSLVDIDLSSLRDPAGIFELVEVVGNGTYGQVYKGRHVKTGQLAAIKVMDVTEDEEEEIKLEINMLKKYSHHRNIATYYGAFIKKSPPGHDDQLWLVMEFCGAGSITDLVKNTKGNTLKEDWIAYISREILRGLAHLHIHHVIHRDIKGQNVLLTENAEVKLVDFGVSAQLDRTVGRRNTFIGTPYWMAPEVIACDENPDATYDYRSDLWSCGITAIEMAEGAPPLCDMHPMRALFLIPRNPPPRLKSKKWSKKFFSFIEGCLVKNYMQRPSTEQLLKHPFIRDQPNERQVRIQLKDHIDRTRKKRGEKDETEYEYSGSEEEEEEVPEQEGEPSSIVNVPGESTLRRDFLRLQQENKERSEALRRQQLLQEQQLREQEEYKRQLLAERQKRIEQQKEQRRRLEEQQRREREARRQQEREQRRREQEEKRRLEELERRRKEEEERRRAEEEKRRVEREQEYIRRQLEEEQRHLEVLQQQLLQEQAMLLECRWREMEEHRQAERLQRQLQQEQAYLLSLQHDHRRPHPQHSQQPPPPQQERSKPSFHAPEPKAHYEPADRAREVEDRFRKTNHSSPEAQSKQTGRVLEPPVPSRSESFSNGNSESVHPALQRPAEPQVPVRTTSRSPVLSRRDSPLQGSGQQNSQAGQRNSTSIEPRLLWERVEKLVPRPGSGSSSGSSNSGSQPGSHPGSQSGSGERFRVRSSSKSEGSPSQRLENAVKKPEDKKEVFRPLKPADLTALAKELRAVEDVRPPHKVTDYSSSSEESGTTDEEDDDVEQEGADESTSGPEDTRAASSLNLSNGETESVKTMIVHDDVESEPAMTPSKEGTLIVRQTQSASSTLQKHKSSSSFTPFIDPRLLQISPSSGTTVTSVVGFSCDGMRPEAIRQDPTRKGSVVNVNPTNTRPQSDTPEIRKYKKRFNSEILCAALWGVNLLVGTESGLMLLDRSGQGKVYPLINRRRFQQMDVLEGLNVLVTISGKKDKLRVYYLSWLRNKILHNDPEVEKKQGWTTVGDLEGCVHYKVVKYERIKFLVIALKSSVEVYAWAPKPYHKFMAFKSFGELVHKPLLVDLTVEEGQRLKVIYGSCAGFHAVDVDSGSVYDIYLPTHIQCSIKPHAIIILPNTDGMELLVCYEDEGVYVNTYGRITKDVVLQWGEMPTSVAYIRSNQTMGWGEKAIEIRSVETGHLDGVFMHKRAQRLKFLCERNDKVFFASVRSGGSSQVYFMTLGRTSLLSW
T7 sequence (O43318 whole entry): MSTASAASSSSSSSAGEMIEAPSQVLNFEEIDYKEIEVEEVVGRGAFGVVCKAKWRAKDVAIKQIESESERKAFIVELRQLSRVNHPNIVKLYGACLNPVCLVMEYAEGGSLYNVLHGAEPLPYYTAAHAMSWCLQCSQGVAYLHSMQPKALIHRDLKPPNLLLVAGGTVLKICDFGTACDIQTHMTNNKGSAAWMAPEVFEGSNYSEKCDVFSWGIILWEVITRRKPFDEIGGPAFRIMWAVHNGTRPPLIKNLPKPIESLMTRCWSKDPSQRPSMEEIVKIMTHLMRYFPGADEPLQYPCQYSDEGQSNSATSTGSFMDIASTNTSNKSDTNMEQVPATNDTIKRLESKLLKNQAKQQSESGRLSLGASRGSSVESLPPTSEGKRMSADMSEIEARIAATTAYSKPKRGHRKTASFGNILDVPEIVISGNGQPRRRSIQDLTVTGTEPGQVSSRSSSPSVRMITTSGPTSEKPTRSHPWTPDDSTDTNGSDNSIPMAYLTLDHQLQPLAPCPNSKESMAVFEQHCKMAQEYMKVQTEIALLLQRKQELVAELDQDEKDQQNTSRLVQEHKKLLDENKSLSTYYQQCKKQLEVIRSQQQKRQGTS
T4 sequence (Q9Y6R4 whole entry): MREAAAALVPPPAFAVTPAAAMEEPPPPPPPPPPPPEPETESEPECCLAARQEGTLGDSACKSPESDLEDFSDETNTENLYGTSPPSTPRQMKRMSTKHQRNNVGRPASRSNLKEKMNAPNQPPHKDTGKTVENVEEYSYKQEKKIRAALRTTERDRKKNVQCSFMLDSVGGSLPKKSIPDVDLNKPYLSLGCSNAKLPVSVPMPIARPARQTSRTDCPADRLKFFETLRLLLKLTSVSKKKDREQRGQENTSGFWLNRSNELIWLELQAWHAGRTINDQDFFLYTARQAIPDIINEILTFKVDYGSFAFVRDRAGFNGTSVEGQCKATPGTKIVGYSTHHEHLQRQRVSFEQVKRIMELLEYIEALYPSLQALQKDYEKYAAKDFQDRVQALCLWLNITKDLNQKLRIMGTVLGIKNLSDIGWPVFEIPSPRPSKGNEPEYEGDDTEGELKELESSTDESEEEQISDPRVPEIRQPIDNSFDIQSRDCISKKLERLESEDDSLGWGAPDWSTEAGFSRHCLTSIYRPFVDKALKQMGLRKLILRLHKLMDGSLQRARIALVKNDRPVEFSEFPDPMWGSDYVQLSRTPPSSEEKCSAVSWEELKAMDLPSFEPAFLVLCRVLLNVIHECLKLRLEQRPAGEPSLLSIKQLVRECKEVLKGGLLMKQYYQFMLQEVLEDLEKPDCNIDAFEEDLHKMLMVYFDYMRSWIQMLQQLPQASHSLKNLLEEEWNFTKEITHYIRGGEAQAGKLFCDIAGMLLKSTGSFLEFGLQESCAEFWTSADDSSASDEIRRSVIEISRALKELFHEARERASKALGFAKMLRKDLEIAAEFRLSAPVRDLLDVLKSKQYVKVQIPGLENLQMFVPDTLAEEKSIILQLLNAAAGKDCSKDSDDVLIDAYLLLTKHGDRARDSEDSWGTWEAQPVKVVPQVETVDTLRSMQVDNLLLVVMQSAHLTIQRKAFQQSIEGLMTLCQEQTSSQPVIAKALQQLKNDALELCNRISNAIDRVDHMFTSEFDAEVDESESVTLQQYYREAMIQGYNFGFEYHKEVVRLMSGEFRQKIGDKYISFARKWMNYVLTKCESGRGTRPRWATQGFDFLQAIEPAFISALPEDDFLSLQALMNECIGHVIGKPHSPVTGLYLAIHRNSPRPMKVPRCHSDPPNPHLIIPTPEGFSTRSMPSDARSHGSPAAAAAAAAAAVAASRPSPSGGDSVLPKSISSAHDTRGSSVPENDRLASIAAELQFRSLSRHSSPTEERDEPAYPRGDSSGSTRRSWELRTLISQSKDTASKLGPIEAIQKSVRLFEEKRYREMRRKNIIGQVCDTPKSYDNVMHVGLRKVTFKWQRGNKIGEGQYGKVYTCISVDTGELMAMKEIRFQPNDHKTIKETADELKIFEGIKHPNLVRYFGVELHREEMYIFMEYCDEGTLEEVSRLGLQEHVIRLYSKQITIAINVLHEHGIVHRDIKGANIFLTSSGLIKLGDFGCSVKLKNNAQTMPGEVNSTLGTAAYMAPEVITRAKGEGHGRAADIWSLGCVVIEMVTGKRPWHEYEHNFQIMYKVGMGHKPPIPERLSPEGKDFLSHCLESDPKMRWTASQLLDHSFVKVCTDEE
T5 sequence (P09769 whole entry): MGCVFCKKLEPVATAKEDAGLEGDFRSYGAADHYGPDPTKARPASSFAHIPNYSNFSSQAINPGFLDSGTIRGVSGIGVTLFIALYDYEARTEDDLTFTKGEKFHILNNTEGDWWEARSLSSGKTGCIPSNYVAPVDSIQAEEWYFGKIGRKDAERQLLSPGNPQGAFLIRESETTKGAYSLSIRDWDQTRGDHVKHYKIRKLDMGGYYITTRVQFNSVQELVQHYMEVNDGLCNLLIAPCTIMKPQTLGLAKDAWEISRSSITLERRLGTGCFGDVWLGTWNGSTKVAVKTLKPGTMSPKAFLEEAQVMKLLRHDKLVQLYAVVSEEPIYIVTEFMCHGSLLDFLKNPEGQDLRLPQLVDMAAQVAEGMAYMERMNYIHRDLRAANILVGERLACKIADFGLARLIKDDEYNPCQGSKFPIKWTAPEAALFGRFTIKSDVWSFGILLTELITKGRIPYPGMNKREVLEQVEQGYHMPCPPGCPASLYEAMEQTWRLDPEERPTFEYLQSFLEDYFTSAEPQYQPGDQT
T1 sequence (P80192 whole entry): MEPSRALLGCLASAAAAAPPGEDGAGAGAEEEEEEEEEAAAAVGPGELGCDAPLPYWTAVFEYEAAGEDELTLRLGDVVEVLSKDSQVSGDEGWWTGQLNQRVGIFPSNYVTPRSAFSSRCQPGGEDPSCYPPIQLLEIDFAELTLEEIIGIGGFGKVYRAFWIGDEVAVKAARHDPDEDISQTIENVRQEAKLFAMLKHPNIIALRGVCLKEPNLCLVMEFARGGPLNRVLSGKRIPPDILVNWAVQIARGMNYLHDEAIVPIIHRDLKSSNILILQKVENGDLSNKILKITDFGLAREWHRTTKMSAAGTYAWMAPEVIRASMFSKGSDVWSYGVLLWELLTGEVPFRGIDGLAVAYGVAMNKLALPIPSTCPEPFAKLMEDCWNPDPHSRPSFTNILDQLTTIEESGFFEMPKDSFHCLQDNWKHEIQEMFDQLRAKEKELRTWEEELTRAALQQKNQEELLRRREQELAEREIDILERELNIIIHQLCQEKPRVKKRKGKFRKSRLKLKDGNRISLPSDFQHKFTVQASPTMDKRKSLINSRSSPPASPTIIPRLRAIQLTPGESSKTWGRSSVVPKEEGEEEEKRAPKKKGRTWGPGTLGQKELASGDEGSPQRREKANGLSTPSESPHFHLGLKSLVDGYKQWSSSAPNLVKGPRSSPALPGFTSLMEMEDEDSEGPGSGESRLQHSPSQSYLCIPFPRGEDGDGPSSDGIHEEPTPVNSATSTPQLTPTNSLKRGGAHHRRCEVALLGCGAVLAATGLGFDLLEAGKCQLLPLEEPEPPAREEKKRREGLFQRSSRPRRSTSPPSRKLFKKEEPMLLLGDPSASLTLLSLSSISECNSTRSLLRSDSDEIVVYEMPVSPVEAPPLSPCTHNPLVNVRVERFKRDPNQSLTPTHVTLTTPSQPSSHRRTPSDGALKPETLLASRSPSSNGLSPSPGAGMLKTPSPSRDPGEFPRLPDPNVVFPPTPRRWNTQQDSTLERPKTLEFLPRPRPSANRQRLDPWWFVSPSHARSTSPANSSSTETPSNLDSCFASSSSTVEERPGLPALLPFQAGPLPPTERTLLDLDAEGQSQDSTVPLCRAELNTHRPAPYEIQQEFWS

SMILES | IC50 (MLK1 (MAP3K9)) [µM] | remaining binding at 0.05 µM (MLK1 (MAP3K9)) [%] | remaining binding at 0.2 µM (MLK1 (MAP3K9)) [%] | remaining binding at 1 µM (MLK1 (MAP3K9)) [%] | remaining binding at 10 µM (MLK1 (MAP3K9)) [%] | remaining binding at 0.2 µM (TAOK1) [%] | remaining binding at 1 µM (TAOK1) [%] | remaining binding at 10 µM (TAOK1) [%] | remaining binding at 0.05 µM (MAP4K4) [%] | remaining binding at 0.2 µM (MAP4K4) [%] | remaining binding at 10 µM (MAP4K4) [%] | remaining binding at 0.05 µM (MAP3K4) [%] | remaining binding at 0.2 µM (MAP3K4) [%] | remaining binding at 1 µM (MAP3K4) [%] | remaining binding at 10 µM (MAP3K4) [%] | IC50 (FGR) [µM] | remaining binding at 0.05 µM (FGR) [%] | remaining binding at 0.2 µM (FGR) [%] | remaining binding at 1 µM (FGR) [%] | remaining binding at 10 µM (FGR) [%] | further results
CCCS(=O)(=O)Nc1ccc(F)c(C(=O)c2c[nH]c3ncc(Cl)cc23)c1F [PLX4720] | > 10 | 100 | 100 | 100 | 100 | 94 | 89 | 65 | 92 | 99 | 46 | 100 | 100 | 100 | 65 | 0.153 | 69 | 38 | 11 | 2.5 | IC50 (TAOK1; [1]): 7.53 µM; remaining binding at 0.05 µM (TAOK1; read-out: Percent control (50 nM)): 87%; remaining binding at 1 µM (MAP4K4; read-out: Percent control (1000 nM)): 100%; remaining binding at 0.05 µM (MAP3K15): 94%; remaining binding at 0.2 µM (MAP3K15): 97%; remaining binding at 1 µM (MAP3K15): 91%; remaining binding at 10 µM (MAP3K15): 59%; remaining binding at 0.05 µM (TAK1 (MAP3K7)): 90%; remaining binding at 0.2 µM (TAK1 (MAP3K7)): 88%; remaining binding at 1 µM (TAK1 (MAP3K7)): 85%; remaining binding at 10 µM (TAK1 (MAP3K7)): 49%
CCCS(=O)(=O)Nc1ccc(F)c(C(=O)c2c[nH]c3ncc(-c4ccc(Cl)cc4)cc23)c1F [vemurafenib] | 14 | 100 | 93 | 97 | 41 | 100 | 97 | 79 | 96 | 92 | 23 | 95 | 92 | 87 | 46 | 0.149 | 65 | 49 | 13 | 1.6 | IC50 (MAP4K4; [1]): 2.84 µM; remaining binding at 0.05 µM (MAP3K15): 84%; remaining binding at 0.2 µM (MAP3K15): 100%; remaining binding at 1 µM (MAP3K15): 84%; remaining binding at 10 µM (MAP3K15): 91%; remaining binding at 0.05 µM (TAK1 (MAP3K7)): 93%; remaining binding at 0.2 µM (TAK1 (MAP3K7)): 88%; remaining binding at 1 µM (TAK1 (MAP3K7)): 86%; remaining binding at 10 µM (TAK1 (MAP3K7)): 88%
